TGI and GI50 data for 13 compounds are collected here from PubChem BioAssay (NCI).

SMILES strings stand for the structures.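 Exposure lasted 48 hours, with cells grown in 96-well plates and compounds tested at five concentrations. Here, GI50 denotes the concentration required for 50% inhibition of growth. Definition used: TGI = concentration required for complete inhibition of growth.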

Among the test systems are UO-31 renal; EKVX NSCLC; SNB-19 CNS; NCI-H460 lung; OVCAR-4 ovarian; RXF 393 renal; LOX IMVI melanoma; IGROV1 ovarian; CCRF-CEM leukemia.
Common to all, as to test: growth of human tumour cells (NCI), 48 h

In the case of `COC(=O)CCC(=O)Nc1cc(C)ccc1C`, the TGI with UO-31 renal, in the test with EKVX NSCLC, with SNB-19 CNS, in the test with NCI-H460 lung, in the test with OVCAR-4 ovarian and in the test on RXF 393 renal was greater than 100 µM each time. In addition, the TGI in the test on LOX IMVI melanoma, in the test on IGROV1 ovarian and in the test with CCRF-CEM leukemia was greater than 100 µM each time.
Take `NC(=S)N/N=C1/C(=O)N(c2ccccc2)C(=O)C1C(=O)Nc1ccccc1` (stereo not given): the TGI in the test on UO-31 renal, in the test with EKVX NSCLC, with SNB-19 CNS, in the test with NCI-H460 lung, in the test on OVCAR-4 ovarian and in the test with RXF 393 renal was greater than 100 µM each time. Moreover, the TGI in the test on IGROV1 ovarian is greater than 100 µM.
In the case of `C=CC(=O)OCCCS(=O)(=O)[O-].C=CC(=O)OCCCS(=O)(=O)[O-].NC1CCCCC1N.[Pt+4]`, the GI50 in the test with UO-31 renal, in the test on EKVX NSCLC, in the test with SNB-19 CNS, with NCI-H460 lung, with OVCAR-4 ovarian and in the test on RXF 393 renal was greater than 25 µM each time. The GI50 in the test with LOX IMVI melanoma, with IGROV1 ovarian and with CCRF-CEM leukemia was greater than 25 µM in each case. Also, the TGI in the test on UO-31 renal, in the test on EKVX NSCLC, with SNB-19 CNS, in the test on NCI-H460 lung, with OVCAR-4 ovarian and with RXF 393 renal was greater than 25 µM each time. Further, the TGI in the test on LOX IMVI melanoma, in the test with IGROV1 ovarian and in the test with CCRF-CEM leukemia was greater than 25 µM each time.
In the case of `CCOC(=O)C1=C(Nc2cccc3ccccc23)OCC1=O`, the TGI in the test with UO-31 renal, in the test with EKVX NSCLC, in the test with SNB-19 CNS, in the test with NCI-H460 lung, with OVCAR-4 ovarian and in the test on IGROV1 ovarian was greater than 100 µM throughout. Besides, the TGI in the test on CCRF-CEM leukemia was greater than 100 µM.
As to `C#CCOCn1cnc2c(N)ncnc21`, the TGI in the test with UO-31 renal, with EKVX NSCLC, with SNB-19 CNS, in the test with NCI-H460 lung, with OVCAR-4 ovarian and with LOX IMVI melanoma was greater than 100 µM throughout. The TGI in the test on IGROV1 ovarian and in the test on CCRF-CEM leukemia was greater than 100 µM each time.
With `Nc1ncnc2c1N=CN(Oc1ccccc1)N2`, the TGI in the test on EKVX NSCLC, in the test with NCI-H460 lung, with OVCAR-4 ovarian, in the test on RXF 393 renal and with IGROV1 ovarian was greater than 100 µM each time.
Turning to `CC(C)CCCC(C)[C@H]1CCC2C3CC=C4C[C@@H](OC(=O)CC(CC(=O)[O-])C(=O)[O-])CC[C@]4(C)C3CC[C@@]21C.N.N.[Pt+4]` (stereo not given in full), the GI50 in the test with EKVX NSCLC was greater than 100 µM; in the test on SNB-19 CNS it was greater than 100 µM; in the test with NCI-H460 lung, greater than 100 µM; with OVCAR-4 ovarian, greater than 100 µM; in the test on RXF 393 renal, 47.1 µM; with LOX IMVI melanoma it was greater than 100 µM. The GI50 with IGROV1 ovarian and with CCRF-CEM leukemia was greater than 100 µM each time. Further, the TGI in the test on EKVX NSCLC, in the test with SNB-19 CNS, in the test on NCI-H460 lung, in the test with OVCAR-4 ovarian, in the test with RXF 393 renal and with LOX IMVI melanoma was greater than 100 µM throughout. The TGI with IGROV1 ovarian and in the test with CCRF-CEM leukemia was greater than 100 µM throughout.
As to `CNC(=O)NCCCCC(NC(=O)OCc1ccccc1)C(=O)OCc1ccccc1` (stereo not given), the TGI with UO-31 renal was 32.7 µM; in the test on EKVX NSCLC, greater than 100 µM; with SNB-19 CNS, greater than 100 µM; with NCI-H460 lung, greater than 100 µM; in the test on OVCAR-4 ovarian, 46.5 µM; in the test on RXF 393 renal, 33.9 µM. For the same compound, the TGI with LOX IMVI melanoma was determined as 31.3 µM; with IGROV1 ovarian, 76.4 µM; in the test on CCRF-CEM leukemia it was 38.5 µM.
As for `CCSc1nnc(-c2ccc3ccccc3c2O)n1-c1ccccc1`, the GI50 was 3.25 µM with NCI-H460 lung, 7.22 µM with OVCAR-4 ovarian, greater than 100 µM in the test with RXF 393 renal and 7.59 µM with IGROV1 ovarian. Also, the TGI with NCI-H460 lung, in the test on OVCAR-4 ovarian, in the test on RXF 393 renal and in the test with IGROV1 ovarian was greater than 100 µM each time.
Consider `CC(C)(C)c1cc(C#N)c2c(c1)C(=O)OC2(c1ccccc1)c1ccccc1C#N` (stereo not given), for which the TGI in the test with UO-31 renal, with EKVX NSCLC, in the test on SNB-19 CNS, in the test with NCI-H460 lung, with OVCAR-4 ovarian and in the test on RXF 393 renal was greater than 100 µM in each case. Further, the TGI with LOX IMVI melanoma, in the test with IGROV1 ovarian and in the test with CCRF-CEM leukemia was greater than 100 µM each time.
For `CC1=C(C(=O)NCc2ccccc2)C(c2ccc(N(C)C)cc2)C(C(=O)NCc2ccccc2)=C(C)N1`, the TGI in the test on UO-31 renal was greater than 100 µM; with EKVX NSCLC it was greater than 100 µM; with SNB-19 CNS, greater than 100 µM; with NCI-H460 lung, greater than 100 µM; with OVCAR-4 ovarian, greater than 100 µM; with RXF 393 renal it was 80.3 µM. In addition, the TGI with IGROV1 ovarian and in the test on CCRF-CEM leukemia was greater than 100 µM throughout.
In the case of `Cc1cccc(/C=N/N=C(\N)NO)n1`, the TGI is greater than 100 µM with EKVX NSCLC; greater than 100 µM with NCI-H460 lung; greater than 100 µM in the test with OVCAR-4 ovarian; greater than 100 µM in the test with RXF 393 renal; 52.8 µM with LOX IMVI melanoma; greater than 100 µM with IGROV1 ovarian. In the test on CCRF-CEM leukemia, the TGI is greater than 100 µM.
Turning to `CC/C(=N/O)C(C)C(=O)CCC(=O)Nc1ccc(Cl)cc1` (stereo not given), the TGI in the test with UO-31 renal, in the test on EKVX NSCLC, with SNB-19 CNS, in the test with NCI-H460 lung, with OVCAR-4 ovarian and in the test on RXF 393 renal was greater than 100 µM each time. The TGI in the test with LOX IMVI melanoma, in the test on IGROV1 ovarian and in the test on CCRF-CEM leukemia was greater than 100 µM throughout.
